Test results reported in ChEMBL document CHEMBL5543127, “Design, Synthesis, and Biological Evaluation of 2-Phenoxyalkylhydrazide Benzoxazole Derivatives as Quorum Sensing Inhibitors with Strong Antibiofilm Effect” (J Med Chem, 2024).
≈ marks a conversion by molar mass, not a printed value. Calls of active or inactive are those of the source. The calls are words filed in the database; no cut-off is given here.

Tests used:
[1] = system: Bacillus pumilus; assay: Anti-microbial activity against Bacillus pumilus CMCC63202 incubated for 20 hrs By CLSI based micro-dilution method; assay type: functional
[2] = system: Bacillus subtilis; assay: Anti-microbial activity against Bacillus subtilis ATCC9372 incubated for 20 hrs By CLSI based micro-dilution method; assay type: functional
[3] = system: Staphylococcus aureus; assay: Anti-microbial activity against methicillin-resistant Staphylococcus aureus ATCC43300 incubated for 20 hrs By CLSI based micro-dilution method; assay type: functional
[4] = system: Pseudomonas aeruginosa; assay: Anti-microbial activity against penicillin-susceptible Pseudomonas aeruginosa 27853 incubated for 20 hrs By CLSI based micro-dilution method; assay type: functional
[5] = system: Staphylococcus aureus; assay: Anti-microbial activity against erythromycin-susceptible Staphylococcus aureus ATCC25923 incubated for 20 hrs By CLSI based micro-dilution method; assay type: functional
[6] = Inhibition of quorum sensing system in Pseudomonas aeruginosa PAO1 at logarithmic growth period assessed as inhibition of pyocyanin production at 102.4 microg/ml incubated for 18 hrs by pyocyanin inhibition assay; details: dose 102.4 µg/ml
[7] = system: Pseudomonas aeruginosa; assay: Antibacterial activity against Pseudomonas aeruginosa PAO1 at logarithmic growth phase assessed as growth inhibition at 153.6 microg/ml measured upto 25 hrs by growth curve assay; assay type: functional, organism-based; details: dose 153.6 µg/ml
[8] = system: Pseudomonas aeruginosa; assay: Anti-microbial activity against Pseudomonas aeruginosa PAO1 incubated for 20 hrs By CLSI based micro-dilution method; assay type: functional
[9] = system: Pseudomonas aeruginosa; assay: Antibacterial activity against Pseudomonas aeruginosa 27853 at logarithmic growth phase assessed as growth inhibition at 153.6 microg/ml measured upto 25 hrs by growth curve assay; assay type: functional, organism-based; details: dose 153.6 µg/ml
[10] = system: Escherichia coli; assay: Anti-microbial activity against penicillin-susceptible Escherichia coli ATCC25922 incubated for 20 hrs By CLSI based micro-dilution method; assay type: functional
[11] = system: Pseudomonas aeruginosa; assay: Inhibition of protease in logarithmic growth phase Pseudomonas aeruginosa PAO1 assessed as inhibition rate at 102.4 microg/ml measured after 32 hrs; details: dose 102.4 µg/ml
[12] = system: Pseudomonas aeruginosa; assay: Antibiofilm activity against logarithmic growth phase Pseudomonas aeruginosa PAO1 assessed as inhibition of biofilm formation at 32 microg/ml incubated for 20 hrs by crystal violet staining based analysis; assay type: functional
[13] = system: Pseudomonas aeruginosa; assay: Antibiofilm activity against logarithmic growth phase Pseudomonas aeruginosa PAO1 assessed as inhibition of biofilm formation at 16 microg/ml incubated for 20 hrs by crystal violet staining based analysis; assay type: functional; details: for inhibition: dose 16.0 µg/ml
[14] = system: Pseudomonas aeruginosa; assay: Anti-virulence activity against logarithmic growth phase Pseudomonas aeruginosa PAO1 assessed as inhibition of Rhamnolipid production at 102.4 microg/ml measured after 24 hrs; assay type: functional
[15] = system: Pseudomonas aeruginosa; assay: Induction of anti-bacterial effect in Pseudomonas aeruginosa PAO1 assessed as synergistic effect by measuring reduction in bacterial survival in presence of ciprofloxacin measured after 24 hrs incubation; assay type: functional, organism-based; details: dose 8-128 µg/ml
[16] = system: Pseudomonas aeruginosa; assay: Induction of anti-bacterial effect in Pseudomonas aeruginosa PAO1 assessed as synergistic effect by measuring reduction in bacterial survival in presence of clarithromycin measured after 24 hrs incubation; assay type: functional, organism-based; details: dose 8-128 µg/ml

SMILES	MIC [1] [µg/mL]	MIC [2] [µg/mL]	MIC [3] [µg/mL]	MIC [4] [µg/mL]	MIC [5] [µg/mL]	inhibition [6]	Activity [7]	MIC [8] [µg/mL]	Activity [9]	MIC [10] [µg/mL]	inhibition [11]	inhibition at 32 µg/mL [12] [%]	inhibition [13]	inhibition at 102.4 µg/mL [14] [%]	Activity [15]	Activity [16]	inhibition at 16 µg/mL [13] [%]
COc1cccc(/C=N/Nc2nc3ccccc3o2)c1	512 (≈ 1920 µM)	512 (≈ 1920 µM)	> 512	> 512	128 (≈ 479 µM)	inactive	inactive	> 512	inactive	> 512	–	–	–	–	–	–	–
COc1ccc(/C=N/Nc2nc3ccccc3o2)cc1OC	256 (≈ 861 µM)	512 (≈ 1720 µM)	256 (≈ 861 µM)	> 512	128 (≈ 431 µM)	40.3%	inactive	> 512	inactive	> 512	21.9%	> 25.4	Active	–	–	–	–
O=C(CCCCOc1ccc(F)cc1)NNc1nc2ccccc2s1	> 512	> 512	> 512	> 512	> 512	Active	inactive	> 512	inactive	> 512	–	–	–	–	–	–	–
Cc1ccc(OCC(=O)NNc2nc3ccccc3o2)cc1	> 512	512 (≈ 1720 µM)	512 (≈ 1720 µM)	512 (≈ 1720 µM)	512 (≈ 1720 µM)	inactive	inactive	> 512	inactive	> 512	13.9%	–	–	–	–	–	–
Cn1/c(=N/NC(=O)c2cccc(Cl)c2)sc2ccccc21	> 512	> 512	> 512	> 512	> 512	40.1%	inactive	> 512	inactive	> 512	> 20%	> 25.4	Active	–	–	–	–
O=C(CCCCOc1ccc(F)cc1)NNc1nc2ccc(Cl)cc2o1	256 (≈ 678 µM)	512 (≈ 1360 µM)	256 (≈ 678 µM)	> 512	512 (≈ 1360 µM)	Active	–	> 512	–	> 512	inactive	> 25.4	Active	> 40	–	–	–
Clc1ccc(/C=N/Nc2nc3ccccc3o2)cc1	> 512	512 (≈ 1880 µM)	512 (≈ 1880 µM)	> 512	64 (≈ 236 µM)	inactive	inactive	> 512	inactive	> 512	21.4%	–	–	–	–	–	–
O=C(COc1cccc(F)c1)NNc1nc2ccccc2o1	> 512	512 (≈ 1700 µM)	> 512	512 (≈ 1700 µM)	512 (≈ 1700 µM)	inactive	inactive	512 (≈ 1700 µM)	inactive	> 512	10%	–	–	–	–	–	–
Cc1cccc2sc(NNC(=O)CCCCOc3ccc(F)cc3)nc12	512 (≈ 1370 µM)	512 (≈ 1370 µM)	512 (≈ 1370 µM)	> 512	512 (≈ 1370 µM)	Active	inactive	> 512	inactive	> 512	> 20%	> 25.4	Active	–	Dose-Dependent Effect	Dose-Dependent Effect	–
CCCCCCCCCCCC(=O)N/N=c1\sc2ccccc2n1C	> 512	> 512	> 512	> 512	> 512	–	inactive	> 512	inactive	> 512	> 20%	–	–	–	–	–	–
O=C(COc1ccc(Cl)cc1)NNc1nc2ccccc2o1	> 512	512 (≈ 1610 µM)	256 (≈ 806 µM)	512 (≈ 1610 µM)	512 (≈ 1610 µM)	46.9%	inactive	> 512	inactive	> 512	10%	> 25.4	–	–	Dose-Dependent Effect	Dose-Dependent Effect	> 50
Cn1/c(=N/NC(=O)c2ccc(F)cc2)sc2ccccc21	> 512	> 512	> 512	> 512	> 512	–	inactive	> 512	inactive	> 512	> 20%	–	–	–	–	–	–
O=C1C=C(Br)/C(=C\Br)O1	256 (≈ 1010 µM)	64 (≈ 252 µM)	128 (≈ 504 µM)	256 (≈ 1010 µM)	32 (≈ 126 µM)	–	–	128 (≈ 504 µM)	–	256 (≈ 1010 µM)	–	–	–	44.9	–	–	–
O=C(CCCOc1ccc(Cl)cc1)NNc1nc2ccccc2o1	512 (≈ 1480 µM)	512 (≈ 1480 µM)	256 (≈ 740 µM)	512 (≈ 1480 µM)	256 (≈ 740 µM)	inactive	–	> 512	–	> 512	30%	> 25.4	Active	–	Dose-Dependent Effect	Dose-Dependent Effect	–
Clc1cccc(/C=N/Nc2nc3ccccc3o2)c1	512 (≈ 1880 µM)	512 (≈ 1880 µM)	> 512	> 512	256 (≈ 942 µM)	inactive	inactive	> 512	inactive	> 512	–	–	–	–	–	–	–
Cn1/c(=N/NC(=O)c2ccccc2F)sc2ccccc21	> 512	> 512	> 512	> 512	> 512	–	inactive	> 512	inactive	> 512	> 20%	–	–	–	–	–	–
COc1ccccc1/C=N/Nc1nc2ccccc2o1	> 512	512 (≈ 1920 µM)	> 512	> 512	256 (≈ 958 µM)	inactive	inactive	> 512	inactive	> 512	–	–	–	–	–	–	–
